Data taken from patent US20260285850A1, “SUBSTITUTED OXAZOLIDINONES AND IMIDAZOLINONES AS HERBICIDES” (FMC CORPORATION, priority 2023, published 2026).

What was measured:
Type in all cases: in vivo
corn (Zea mays) [1] = assay: Test A preemergence soil spray, visual injury rating 0-100; conditions: 10 days
Procedure, shortened: (§1)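 Rating: visual, day 10, untreated plants as reference, 0 no effect to 100 full control. Plants were in loam-sand and were treated either preemergence via directed soil spray or postemergence at the one- to two-leaf stage.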

[2] = test system: ragweed (common ragweed, Ambrosia artemisiifolia); assay: as above; conditions: 10 days
Procedure, shortened: as §1

[3] = test system: oat, wild (wild oat, Avena fatua); assay: as above; conditions: 10 days
Procedure, shortened: as §1

[4] = test system: wheat (Triticum aestivum); assay: as above; conditions: 10 days
Procedure, shortened: as §1

[5] = test system: ryegrass, Italian (italian ryegrass, Lolium multiflorum); assay: as above; conditions: 10 days
Procedure, shortened: as §1

[6] = test system: green foxtail (Setaria viridis); assay: as above; conditions: 10 days
Procedure, shortened: as §1

[7] = test system: barnyardgrass (Echinochloa crus-galli); assay: as above; conditions: 10 days
Procedure, shortened: as §1

kochia (Bassia scoparia) [8] = assay: as above; conditions: 10 days
Procedure, shortened: as §1

soybean (Glycine max) [9] = assay: as above; conditions: 10 days
Procedure, shortened: as §1

[10] = test system: palmer (palmer amaranth, palmer pigweed, Amaranthus palmeri); assay: as above; conditions: 10 days
Procedure, shortened: as §1

[11] = test system: blackgrass (Alopecurus myosuroides); assay: as above; conditions: 10 days
Procedure, shortened: as §1

[12] = test system: barnyardgrass (Echinochloa crusgalli); assay: Test B flooded paddy test, visual plant response rating 0-100; conditions: 250 g ai/ha, Flood, applied to paddy water, evaluated after 13 days
Procedure, shortened: (§2)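 Visual evaluation after 13 days. Water-applied treatment, 3 cm flood depth held constant, plants at 2-leaf stage at treatment.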

rice (Oryza sativa) = assay: as above; conditions: 250 g ai/ha, Flood, applied to paddy water, evaluated after 13 days
Procedure, shortened: as §2

[13] = test system: sedge, umbrella (small-flower umbrella sedge, Cyperus difformis); assay: as above; conditions: 250 g ai/ha, Flood, applied to paddy water, evaluated after 13 days
Procedure, shortened: as §2

[14] = test system: ducksalad (Heteranthera limosa); assay: as above; conditions: 250 g ai/ha, Flood, applied to paddy water, evaluated after 13 days
Procedure, shortened: as §2

[15] = test system: galium (catchweed bedstraw, Galium aparine); assay: Test A postemergence application, visual injury rating 0-100
Procedure, shortened: as §1

corn (Zea mays) [16] = assay: as above
Procedure, shortened: as §1

[17] = test system: ragweed (common ragweed, Ambrosia artemisiifolia); assay: as above
Procedure, shortened: as §1

[18] = test system: oat, wild (wild oat, Avena fatua); assay: as above
Procedure, shortened: as §1

[19] = test system: wheat (Triticum aestivum); assay: as above
Procedure, shortened: as §1

[20] = test system: ryegrass, Italian (italian ryegrass, Lolium multiflorum); assay: as above
Procedure, shortened: as §1

[21] = test system: green foxtail (Setaria viridis); assay: as above
Procedure, shortened: as §1

[22] = test system: barnyardgrass (Echinochloa crus-galli); assay: as above
Procedure, shortened: as §1

[23] = test system: horseweed (Erigeron canadensis); assay: as above
Procedure, shortened: as §1

kochia (Bassia scoparia) [24] = assay: as above
Procedure, shortened: as §1

soybean (Glycine max) [25] = assay: as above
Procedure, shortened: as §1

[26] = test system: palmer (palmer amaranth, palmer pigweed, Amaranthus palmeri); assay: as above
Procedure, shortened: as §1

[27] = test system: blackgrass (Alopecurus myosuroides); assay: as above
Procedure, shortened: as §1

[28] = 62 g ai/ha, 0 = no effect, 100 = complete control
[29] = 62 g ai/ha, postemergence, 10 days, 0 = no effect, 100 = complete control
[30] = Postemergence, 16 g ai/ha, greenhouse 10 days, 0 no effect, 100 complete control

Q: `COC(=O)C1C=CC(NC(=O)C2(C)CN(c3cc(F)cc(F)c3)C(=O)O2)C1` (stereo not shown) [Compound 89] was tested. Which “Corn plant response rating” value (corn (Zea mays) [1]; 16 g ai/ha, 0 to 100 scale) did it give?
A: The value was 30.

Q: What about the “Corn plant response rating (0-100)” value (corn (Zea mays) [1]; [28]) of the same compound?
A: Its value is 100.

Q: What about the “Ragweed plant response rating” value ([2]; 16 g ai/ha, 0 to 100 scale) of the same compound?
A: Its value is 0.

Q: What about the “Ragweed plant response rating (0-100)” value [2, 28] of the same compound?
A: The value was 30.

Q: What about the “Oat, Wild plant response rating” value ([3]; 16 g ai/ha, 0 to 100 scale) of the same compound?
A: Its value is 80.

Q: And the “Oat, Wild plant response rating (0-100)” value [3, 28]?
A: Its value is 90.

Q: What about the “Wheat plant response rating” value ([4]; 16 g ai/ha, 0 to 100 scale) of the same compound?
A: The value was 90.

Q: And the “Wheat plant response rating (0-100)” value [4, 28]?
A: Its value is 90.

Q: And the “Ryegrass, Italian plant response rating” value ([5]; 16 g ai/ha, 0 to 100 scale)?
A: The value was 80.

Q: What about the “Ryegrass, Italian plant response rating (0-100)” value [5, 28] of the same compound?
A: Its value is 90.

Q: And the “Foxtail, Green plant response rating” value ([6]; 16 g ai/ha, 0 to 100 scale)?
A: Its value is 10.

Q: What about the “Foxtail, Green plant response rating (0-100)” value [6, 28] of the same compound?
A: Its value is 100.

Q: What about the “Barnyardgrass plant response rating” value ([7]; 16 g ai/ha, 0 to 100 scale) of the same compound?
A: Its value is 70.

Q: What about the “Barnyardgrass plant response rating (0-100)” value [7, 28] of the same compound?
A: The value was 100.

Q: And the “Kochia plant response rating” value (kochia (Bassia scoparia) [8]; 16 g ai/ha, 0 to 100 scale)?
A: The value was 90.

Q: And the “Kochia plant response rating (0-100)” value (kochia (Bassia scoparia) [8]; [28])?
A: Its value is 100.

Q: And the “Soybean plant response rating” value (soybean (Glycine max) [9]; 16 g ai/ha, 0 to 100 scale)?
A: Its value is 40.

Q: And the “Soybean plant response rating (0-100)” value (soybean (Glycine max) [9]; [28])?
A: Its value is 80.

Q: And the “Pigweed, Palmer plant response rating” value ([10]; 16 g ai/ha, 0 to 100 scale)?
A: Its value is 80.

Q: And the “Pigweed, Palmer plant response rating (0-100)” value [10, 28]?
A: The value was 100.

Q: And the “Blackgrass plant response rating” value ([11]; 16 g ai/ha, 0 to 100 scale)?
A: The value was 30.

Q: And the “Blackgrass plant response rating (0-100)” value [11, 28]?
A: Its value is 70.

Q: And the “Plant response rating, Barnyardgrass (0 to 100 scale, 0 is no effect and 100 is complete control)” value [12]?
A: The value was 95.

Q: What about the “Plant response rating, Rice (0 to 100 scale, 0 is no effect and 100 is complete control)” value (rice (Oryza sativa)) of the same compound?
A: Its value is 25.

Q: What about the “Plant response rating, Sedge, Umbrella (0 to 100 scale, 0 is no effect and 100 is complete control)” value [13] of the same compound?
A: The value was 95.

Q: What about the “Plant response rating, Ducksalad (0 to 100 scale, 0 is no effect and 100 is complete control)” value [14] of the same compound?
A: Its value is 70.

Q: What about the “Galium plant response rating (0-100)” value [15, 29] of the same compound?
A: Its value is 100.

Q: And the “Galium plant response rating (0 to 100 scale)” value [15, 30]?
A: Its value is 100.

Q: What about the “Corn plant response rating (0-100)” value (corn (Zea mays) [16]; [29]) of the same compound?
A: The value was 100.

Q: What about the “Corn plant response rating (0 to 100 scale)” value (corn (Zea mays) [16]; [30]) of the same compound?
A: Its value is 90.

Q: What about the “Ragweed plant response rating (0-100)” value [17, 29] of the same compound?
A: The value was 70.

Q: And the “Ragweed plant response rating (0 to 100 scale)” value [17, 30]?
A: Its value is 50.

Q: And the “Oat, Wild plant response rating (0-100)” value [18, 29]?
A: Its value is 90.

Q: What about the “Oat, Wild plant response rating (0 to 100 scale)” value [18, 30] of the same compound?
A: The value was 90.

Q: And the “Wheat plant response rating (0-100)” value [19, 29]?
A: The value was 90.

Q: What about the “Wheat plant response rating (0 to 100 scale)” value [19, 30] of the same compound?
A: The value was 90.

Q: What about the “Ryegrass, Italian plant response rating (0-100)” value [20, 29] of the same compound?
A: Its value is 90.

Q: What about the “Ryegrass, Italian plant response rating (0 to 100 scale)” value [20, 30] of the same compound?
A: The value was 90.

Q: And the “Foxtail, Green plant response rating (0-100)” value [21, 29]?
A: The value was 90.

Q: And the “Foxtail, Green plant response rating (0 to 100 scale)” value [21, 30]?
A: Its value is 60.

Q: What about the “Barnyardgrass plant response rating (0-100)” value [22, 29] of the same compound?
A: Its value is 100.

Q: What about the “Barnyardgrass plant response rating (0 to 100 scale)” value [22, 30] of the same compound?
A: The value was 90.

Q: And the “Horseweed plant response rating (0-100)” value [23, 29]?
A: The value was 80.

Q: What about the “Horseweed plant response rating (0 to 100 scale)” value [23, 30] of the same compound?
A: The value was 20.

Q: And the “Kochia plant response rating (0-100)” value (kochia (Bassia scoparia) [24]; [29])?
A: The value was 90.

Q: What about the “Kochia plant response rating (0 to 100 scale)” value (kochia (Bassia scoparia) [24]; [30]) of the same compound?
A: The value was 80.

Q: And the “Soybean plant response rating (0-100)” value (soybean (Glycine max) [25]; [29])?
A: Its value is 50.

Q: What about the “Soybean plant response rating (0 to 100 scale)” value (soybean (Glycine max) [25]; [30]) of the same compound?
A: Its value is 50.

Q: What about the “Pigweed, Palmer plant response rating (0-100)” value [26, 29] of the same compound?
A: Its value is 90.

Q: And the “Pigweed, Palmer plant response rating (0 to 100 scale)” value [26, 30]?
A: Its value is 70.

Q: What about the “Blackgrass plant response rating (0-100)” value [27, 29] of the same compound?
A: The value was 90.

Q: And the “Blackgrass plant response rating (0 to 100 scale)” value [27, 30]?
A: The value was 90.
